Test results reported in PMC2790015 (Journal of molecular biology, 2009).

Experiments:
[1] = test system: DNA alone; assay: DNA hybridization controls for the AraC experiments; assay type: binding; conditions: compared with no sugar; sugars 10 mM; data not shown
[2] = test system: adjacent DNA half-sites; conditions: addition of arabinose; cited from earlier work
[3] = test system: K4 and E4 heterodimerizing coiled-coil peptides; assay: DNA-assisted binding assay; conditions: GC to AT substituted DNA versus original DNA sequence
[4] = target: T1, K4 coiled-coil peptide (modified: N-terminal Met, Val to Trp, C-terminal Ala), unconjugated; assay: ITC
T1 peptide: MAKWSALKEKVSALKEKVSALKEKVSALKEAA

Q: For `O[C@@H]1[C@@H](O)[C@@H](O)CO[C@H]1O` [arabinose], which “effect of sugar on DNA hybridization” value [1] is on record?
A: Its value is “DNA hybridization is not affected”.

Q: What about the “increase in amount of AraC capable of binding to adjacent DNA half-sites” value [2] of the same molecule?
A: Its value is 40 -fold.

Q: Which “effect of sugar on DNA hybridization” value [1] does the source give for `OC[C@H]1OC(O)[C@H](O)[C@@H](O)[C@@H]1O` (some centres unmarked) [glucose] here?
A: Its value is “DNA hybridization is not affected”.

Q: For “GC to AT substituted DNA sequences: K4 and E4 conjugated to GC to AT substituted 5’-TTTTTTGGGTTATAC-3’ and 5’-TTTTTTGTATAAC-3’ (K4 and E4 peptides conjugated)”, which “decrease in the interaction between the conjugates” value [3] is on record?
A: The value was 3 -fold.

Q: For MAEWSALEKEVSALEKEVSALEKEVSALEKAA [E4 coiled-coil peptide (modified: N-terminal Met, Val to Trp, C-terminal Ala), unconjugated], which Kd [4] is on record?
A: The Kd was ~1 µM.
